From ChEMBL document CHEMBL6087422, “A promising class of antiprotozoal agents, design and synthesis of novel Pyrimidine-Cinnamoyl hybrids” (Eur J Med Chem, 2025)
Each block holds one compound with its values, some of them ahead of it. Active and inactive are the calls of the source. No cut-off for these calls is given here.

What was measured:
[1] = test system: Plasmodium falciparum; experiment: Antimalarial activity against chloroquine-sensitive Plasmodium falciparum NF54 assessed as inhibition of parasite growth measured after 24 hrs by parasite lactate dehydrogenase (pLDH) assay; type: functional, organism-based; details: NF54, 24 h
[2] = Cytotoxicity against HEK293 cells assessed as cell viability incubated for 48 hrs by MTT assay; type: toxicity, cell-based; details: human
[3] = Selectivity index, ratio of IC50 for cytotoxicity against HEK293 cells to IC50 for antimalarial activity against chloroquine sensitive Plasmodium falciparum NF54 assessed as inhibition of parasite growth measured after 24 hrs by parasite lactate dehydrogenase (pLDH) assay; type: toxicity, cell-based; details: human, HEK293 cells versus Plasmodium falciparum NF54, read-out: Ratio IC50
[4] = Haemolytic activity in human RBC assessed as haemolysis at 50 uM for 48 hrs by haemolysis assay; type: toxicity, cell-based, Erythrocyte; details: human red blood cells, read-out: Activity
[5] = test system: Plasmodium falciparum; experiment: Antimalarial activity against […] Plasmodium falciparum 3D7 assessed as growth inhibition by isotopic micro drug susceptibility assay; type: functional, organism-based
[6] = test system: Plasmodium falciparum; experiment: Antimalarial activity against chloroquine-sensitive Plasmodium falciparum W2 assessed as growth inhibition by isotopic micro drug susceptibility assay; type: functional, organism-based
[7] = test system: Plasmodium falciparum; experiment: Antimalarial activity against chloroquine-resistant intra-erythrocytic stage Plasmodium falciparum; type: functional, organism-based
[8] = test system: Plasmodium berghei; experiment: In vivo antiplasmodial activity against Plasmodium berghei assessed as growth inhibition at 100 mg/kg measured after 21 days relative to control; type: functional; parameters: scale not given: the % may be the effect or the level left; details: time 21 day
[9] = test system: Plasmodium falciparum; experiment: Binding affinity to 6xHis tagged recombinant Plasmodium falciparum Hsp70-1 extracted from Escherichia coli assessed as association rate constant (Ka) incubated for 3 mins by SPR analysis
[10] = test system: Plasmodium falciparum; experiment: Binding affinity to 6xHis tagged recombinant Plasmodium falciparum Hsp70-z extracted from Escherichia coli assessed as association rate constant (Ka) incubated for 3 mins by SPR analysis
[11] = Binding affinity to 6xHis tagged recombinant Plasmodium falciparum Hsp70-1 extracted from Escherichia coli assessed as dissociation rate constant (Kd) incubated for 10 mins by SPR analysis
[12] = Binding affinity to 6xHis tagged recombinant Plasmodium falciparum Hsp70-z extracted from Escherichia coli assessed as dissociation rate constant (Kd) incubated for 10 mins by SPR analysis
[13] = Binding affinity to 6xHis tagged recombinant Plasmodium falciparum Hsp70-1 extracted from Escherichia coli assessed as dissociation constant (KD) incubated for 10 mins by SPR analysis
[14] = Binding affinity to 6xHis tagged recombinant Plasmodium falciparum Hsp70-z extracted from Escherichia coli assessed as dissociation constant (KD) incubated for 10 mins by SPR analysis
[15] = test system: Plasmodium falciparum; experiment: Antimalarial activity against chloroquine-sensitive Plasmodium falciparum NF54 assessed as reduction of schizonts at IC50 concentration incubated for 48 hrs by microscopic analysis; type: functional, organism-based
[16] = test system: Plasmodium falciparum; experiment: Antimalarial activity against chloroquine-sensitive Plasmodium falciparum NF54 assessed as reduction of second generation rings at IC50 concentration incubated for 48 hrs by microscopic analysis; type: functional, organism-based
[17] = test system: Plasmodium falciparum; experiment: Binding affinity to 6xHis tagged recombinant Plasmodium falciparum Hsp70-1 extracted from Escherichia coli by SPR analysis
[18] = test system: Plasmodium falciparum; experiment: Binding affinity to 6xHis tagged recombinant Plasmodium falciparum Hsp70-z extracted from Escherichia coli by SPR analysis

SMILES: COc1ccc(-c2cc(-c3ccc(OC)cc3)nc(N3CCN(C(=O)/C=C/c4ccc[nH]4)CC3)n2)cc1
IC50 [1]: 7430 nM
IC50 at 48 h [2]: 3690 nM
selectivity ratio at 24 h [3]: 0.5
hemolysis at 48 h, 50 µM [4]: 0.01%

SMILES: O=C(/C=C/c1ccccc1)N1CCN(c2nc(-c3cccnc3)cc(-c3ccoc3)n2)CC1
IC50 [1]: 5000 nM
hemolysis at 48 h, 50 µM [4]: 0.01%

SMILES: COc1ccc(-c2cc(-c3ccc(OC)cc3)nc(N3CCN(C(=O)/C=C/c4ccc(C)cc4)CC3)n2)cc1
IC50 [1]: 3580 nM
hemolysis at 48 h, 50 µM [4]: 0.01%

SMILES: COc1ccc(-c2cc(-c3ccc(C)cc3)nc(N3CCN(C(=O)/C=C/c4ccc(OC)c(OC)c4)CC3)n2)cc1
IC50 [1]: 600 nM
IC50 at 48 h [2]: 930 nM
selectivity ratio at 24 h [3]: 1.54
hemolysis at 48 h, 50 µM [4]: 0.01%

SMILES: Cc1ccc(/C=C/C(=O)N2CCN(c3nc(-c4ccc(Cl)cc4)cc(-c4cccnc4)n3)CC2)cc1
IC50 [1]: 3670 nM
hemolysis at 48 h, 50 µM [4]: 0.01%

SMILES: CO[C@H]1/C=C/O[C@@]2(C)Oc3c(C)c(O)c4c(O)c(c(/C=N/N5CCN(C)CC5)c(O)c4c3C2=O)NC(=O)/C(C)=C\C=C\[C@H](C)[C@H](O)[C@@H](C)[C@@H](O)[C@@H](C)[C@H](OC(C)=O)[C@@H]1C [RIFAMPIN]
IC50 [5]: 3200 nM
IC50 [6]: 1300 nM

SMILES: COc1ccc(/C=C/C(=O)N2CCN(c3nc(-c4ccc(OC)cc4)cc(-c4ccc(OC)cc4)n3)CC2)cc1
IC50 [1]: 5000 nM
hemolysis at 48 h, 50 µM [4]: 0.01%

SMILES: COc1ccc(-c2cc(-c3ccc(C)cc3)nc(N3CCNCC3)n2)cc1
IC50 [1]: 5000 nM
hemolysis at 48 h, 50 µM [4]: 0.01%

SMILES: COc1ccc(-c2cc(-c3ccc(OC)cc3)nc(N3CCN(C(=O)/C=C/c4ccccc4)CC3)n2)cc1
IC50 [1]: 4090 nM
hemolysis at 48 h, 50 µM [4]: 0.01%

SMILES: COc1cc(/C=C/C(=O)CC(=O)/C=C/c2ccc(O)c(OC)c2)ccc1O [CURCUMIN]
IC50 [7]: ~5000 nM
Activity [8]: 100%

SMILES: COc1ccc(-c2cc(-c3ccc(OC)cc3)nc(N3CCN(C(=O)/C=C/c4ccc(Cl)cc4)CC3)n2)cc1
IC50 [1]: 2710 nM
hemolysis at 48 h, 50 µM [4]: 0.01%

SMILES: COc1ccc(-c2cc(-c3ccc(OC)cc3)nc(N3CCN(C(=O)/C=C/c4ccc(OC)c(OC)c4)CC3)n2)cc1
IC50 [1]: 5000 nM
hemolysis at 48 h, 50 µM [4]: 0.01%

SMILES: CCc1ccc(-c2cc(-c3ccc(OC)c(OC)c3)nc(N3CCN(C(=O)/C=C/c4ccc(C)cc4)CC3)n2)cc1
IC50 [1]: 1560 nM
hemolysis at 48 h, 50 µM [4]: 0.01%

Ka [9]: 5.92 10^6/M.s
Ka [10]: 6.24 10^6/M.s
Activity [17]: Dose-dependent-effect
Activity [18]: Dose-dependent-effect
SMILES: CCc1ccc(-c2cc(-c3ccc(OC)c(OC)c3)nc(N3CCN(C(=O)/C=C/c4ccc(OC)cc4)CC3)n2)cc1
IC50 [1]: 180 nM
IC50 at 48 h [2]: 3360 nM
selectivity ratio at 24 h [3]: 18.6
Kd [11]: 9.29 10^-2(1/s)
Kd [12]: 9.79 10^-2(1/s)
Kd [13]: 1.57 nM
Kd [14]: 15.7 nM
Activity [15]: Active
Activity [16]: Active
hemolysis at 48 h, 50 µM [4]: 0.01%

SMILES: COc1ccc(-c2cc(-c3ccc(C)cc3)nc(N3CCN(C(=O)/C=C/c4ccc(Cl)cc4)CC3)n2)cc1
IC50 [1]: 1720 nM
hemolysis at 48 h, 50 µM [4]: 0.01%

SMILES: COc1ccc(-c2cc(-c3ccc(C)cc3)nc(N3CCN(C(=O)/C=C/c4ccc(C)cc4)CC3)n2)cc1
IC50 [1]: 2330 nM
hemolysis at 48 h, 50 µM [4]: 0.01%

SMILES: COc1ccc(-c2cc(-c3ccc(Cl)cc3)nc(N3CCN(C(=O)/C=C/c4ccccc4)CC3)n2)cc1
IC50 [1]: 6020 nM
hemolysis at 48 h, 50 µM [4]: 0.01%

SMILES: C=C[C@H]1CN2CC[C@H]1C[C@H]2[C@H](O)c1ccnc2ccc(OC)cc12 [QUININE]
IC50 [1]: 110 nM
selectivity ratio at 24 h [3]: 1240
hemolysis at 48 h, 50 µM [4]: 0.01%

SMILES: CCN(CC)CCCC(C)Nc1ccnc2cc(Cl)ccc12 (configuration not stated) [CHLOROQUINE]
hemolysis at 48 h, 50 µM [4]: 0.01%

SMILES: CCc1ccc(-c2cc(-c3ccc(OC)c(OC)c3)nc(N3CCN(C(=O)/C=C/c4ccc(Cl)cc4)CC3)n2)cc1
IC50 [1]: 200 nM
IC50 at 48 h [2]: 870 nM
selectivity ratio at 24 h [3]: 4.34
hemolysis at 48 h, 50 µM [4]: 0.01%

Ka [9]: 7.97 10^6/M.s
Ka [10]: 8.28 10^6/M.s
Activity [17]: Dose-dependent-effect
Activity [18]: Dose-dependent-effect
SMILES: CCc1ccc(-c2cc(-c3ccc(OC)c(OC)c3)nc(N3CCN(C(=O)/C=C/c4ccccc4)CC3)n2)cc1
IC50 [1]: 210 nM
IC50 at 48 h [2]: 3550 nM
selectivity ratio at 24 h [3]: 16.8
Kd [11]: 7.72 10^-2(1/s)
Kd [12]: 8.97 10^-2(1/s)
Kd [13]: 9.69 nM
Kd [14]: 10.8 nM
Activity [15]: Active
Activity [16]: Active
hemolysis at 48 h, 50 µM [4]: 0.01%

SMILES: CCc1ccc(-c2cc(-c3ccc(OC)c(OC)c3)nc(N3CCN(C(=O)/C=C/c4ccc[nH]4)CC3)n2)cc1
IC50 [1]: 720 nM
hemolysis at 48 h, 50 µM [4]: 0.01%

SMILES: COc1ccc(-c2cc(-c3ccc(C)cc3)nc(N3CCN(C(=O)/C=C/c4ccccc4)CC3)n2)cc1
IC50 [1]: 2720 nM
hemolysis at 48 h, 50 µM [4]: 0.01%

SMILES: CC[C@@]1(O)C(=O)OCc2c1cc1n(c2=O)Cc2cc3ccccc3nc2-1 [CAMPTOTHECIN]
IC50 at 48 h [2]: 200 nM
